The term IC50 denotes the concentration at which inhibition is half-maximal.

This assay deals with JR251 or RBL cells. Kind of assay: Store-operated calcium entry, either JR251 or RBL cells, or both. In kind it is cell-based. Put shortly: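 FLIPR calcium-entry readout in fluo-4-loaded cells held in Ca2+-free HBSS before calcium add-back. For RBL-2H3, store depletion used thapsigargin for 25 min after a 5 min compound pre-incubation, and IC50 was based on the 7 s Upslope. For Orai1/STIM1 stable cells, compound was pre-incubated 30 min and IC50 was based on Peak-Basal.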

Bounds are passed on as bounds.

Turning to `O=C(Nc1scc(-c2ccc(Br)c(F)c2F)c1C(=O)O)c1ccc2occc2c1` [2-(benzofuran-5-carboxamido)-4-(4-bromo-2,3-difluorophenyl)thiophene-3-carboxylic acid], the IC50 was below 10 µM.

With `O=C(Nc1scc(-c2ccc(Br)cc2)c1C(=O)O)OCc1ccccc1` [2-(benzyloxycarbonylamino)-4-(4-bromophenyl)thiophene-3-carboxylic acid], the IC50 is below 10 µM.

Consider `O=C(Nc1scc(-c2ccc(Cl)cc2)c1C(=O)O)OCc1ccccc1` [2-(benzyloxycarbonylamino)-4-(4-chlorophenyl)thiophene-3-carboxylic acid], for which the IC50 was below 10 µM.

`O=C(O)c1c(-c2ccc(Cl)cc2Cl)csc1NC(=O)C1CC1` [2-(cyclopropanecarboxamido)-4-(2,4-dichlorophenyl)thiophene-3-carboxylic acid]: the IC50 was below 10 µM.

In the case of `O=C(O)c1c(-c2ccc(Cl)c(Cl)c2)csc1NC(=O)C1CC1` [2-(cyclopropanecarboxamido)-4-(3,4-dichlorophenyl)thiophene-3-carboxylic acid], the half-maximal inhibitory concentration (IC50) is below 10 µM.

On to `Cc1ccc(-c2csc(NC(=O)c3ccc4ccccc4n3)c2C(=O)O)cc1` [2-(quinoline-2-carboxamido)-4-p-tolylthiophene-3-carboxylic acid], for which the IC50 was below 10 µM.

As for `O=C(Nc1scc(-c2ccc(C(F)(F)F)cc2)c1C(=O)O)c1cccs1` [2-(thiophene-2-carboxamido)-4-(4-(trifluoromethyl)phenyl)thiophene-3-carboxylic acid], the IC50 was below 10 µM.

Consider `Cc1ccc(-c2csc(NC(=O)c3cccs3)c2C(=O)O)cc1` [2-(thiophene-2-carboxamido)-4-p-tolylthiophene-3-carboxylic acid], for which the concentration for half-maximal inhibition (IC50) was below 10 µM.

For the molecule `Cc1ccc(-c2csc(NC(=O)c3ccsc3)c2C(=O)O)cc1` [2-(thiophene-3-carboxamido)-4-p-tolylthiophene-3-carboxylic acid], the IC50 is below 10 µM.

`Cc1ccc(-c2csc(NC(=O)c3nc4c(F)cccc4o3)c2C(=O)O)c(F)c1F` [4-(2,3-difluoro-4-methylphenyl)-2-(4-fluorobenzo[d]oxazole-2-carboxamido)thiophene-3-carboxylic acid]: the IC50 is below 10 µM.

Turning to `Cc1ccc(-c2csc(NC(=O)c3nc4c(F)cccc4s3)c2C(=O)O)c(F)c1F` [4-(2,3-difluoro-4-methylphenyl)-2-(4-fluorobenzo[d]thiazole-2-carboxamido)thiophene-3-carboxylic acid], the IC50 was below 10 µM.

For `Cc1ccc(-c2csc(NC(=O)c3cc4c(F)cccc4o3)c2C(=O)O)c(F)c1F` [4-(2,3-difluoro-4-methylphenyl)-2-(4-fluorobenzofuran-2-carboxamido)thiophene-3-carboxylic acid], the IC50 was below 10 µM.

Turning to `Cc1ccc(-c2csc(NC(=O)c3cc4c(F)cccn4n3)c2C(=O)O)c(F)c1F` [4-(2,3-difluoro-4-methylphenyl)-2-(4-fluoropyrazolo[1,5-a]pyridine-2-carboxamido)thiophene-3-carboxylic acid], the IC50 is below 10 µM.

Take `Cc1ccc(-c2csc(NC(=O)c3nc4cc(F)c(F)cc4o3)c2C(=O)O)c(F)c1F` [4-(2,3-difluoro-4-methylphenyl)-2-(5,6-difluorobenzo[d]oxazole-2-carboxamido)thiophene-3-carboxylic acid]: the IC50 is below 10 µM.

For `Cc1ccc(-c2csc(NC(=O)c3nc4cc(F)ccc4o3)c2C(=O)O)c(F)c1F` [4-(2,3-difluoro-4-methylphenyl)-2-(5-fluorobenzo[d]oxazole-2-carboxamido)thiophene-3-carboxylic acid], the IC50 was below 10 µM.

In the case of `COc1ccc2oc(C(=O)Nc3scc(-c4ccc(C)c(F)c4F)c3C(=O)O)nc2c1` [4-(2,3-difluoro-4-methylphenyl)-2-(5-methoxybenzo[d]oxazole-2-carboxamido)thiophene-3-carboxylic acid], the IC50 is below 10 µM.

These data come from patent publication US8394848B2, “Compounds that modulate intracellular calcium” (Calcimedica, Inc., priority 2008, dated 2013).
